This note sets out measurements from ChEMBL document CHEMBL4311986, “Synthesis and biological evaluation of new multi-target 3-(1H-indol-3-yl)pyrrolidine-2,5-dione derivatives with potential antidepressant effect” (Eur J Med Chem, 2019).

The half-life is the time needed for the level to fall by half in the phase considered. The term inhibition denotes how much of the control response was suppressed. Low values mean little suppression, high ones strong suppression. For orientation: Ki means the equilibrium dissociation constant of an inhibitor or competing ligand from its target.

Data set [1] relates to Mus musculus. Description: Induction of hypothermia in CD-1 mouse assessed as change in body temperature at 5 mg/kg, ip measured after 30 mins by thermometric method. The format is functional, organism-based.
The test system of data set [2] is Mus musculus. Description: Antidepressant-like activity in CD-1 mouse assessed as decrease in immobility time at 10 mg/kg, ip treated for 30 mins and measured for 4 mins by forced swim test. The format is functional, organism-based.
For data set [3], the system named is Mus musculus. Description: Induction of hypothermia in CD-1 mouse assessed as change in body temperature at 10 mg/kg, ip measured after 30 mins by thermometric method. The data set is classed as functional, organism-based.
In data set [4] the test system is Mus musculus. Description: Induction of hypothermia in CD-1 mouse assessed as change in body temperature at 15 mg/kg, ip measured after 30 mins by thermometric method (reference value: -0.2 to 0.4 deg C). The format is functional, organism-based.
Data set [5] relates to Mus musculus. Description: Induction of hypothermia in CD-1 mouse assessed as change in body temperature at 20 mg/kg, ip measured after 30 mins by thermometric method. The format is functional, organism-based.
The subject of data set [6] is Mus musculus. Description: Induction of hypothermia in CD-1 mouse assessed as change in body temperature at 5 mg/kg, ip measured after 60 mins by thermometric method. The format is functional, organism-based.
For data set [7], the system named is Mus musculus. Description: Induction of hypothermia in CD-1 mouse assessed as change in body temperature at 10 mg/kg, ip measured after 60 mins by thermometric method. The data set is classed as functional, organism-based.
In data set [8] the test system is Mus musculus. Description: Induction of hypothermia in CD-1 mouse assessed as change in body temperature at 15 mg/kg, ip measured after 60 mins by thermometric method (reference value: -0.2 to 0.5 deg C). The format is functional, organism-based.
For data set [9], the system named is Mus musculus. Description: Induction of hypothermia in CD-1 mouse assessed as change in body temperature at 20 mg/kg, ip measured after 60 mins by thermometric method. The format is functional, organism-based.
The subject of data set [10] is Mus musculus. Description: Induction of hypothermia in CD-1 mouse assessed as change in body temperature at 5 mg/kg, ip measured after 90 mins by thermometric method. The format is functional, organism-based.
Data set [11] relates to Mus musculus. Description: Induction of hypothermia in CD-1 mouse assessed as change in body temperature at 10 mg/kg, ip measured after 90 mins by thermometric method. The format is functional, organism-based.
Data set [12] deals with Mus musculus. Description: Induction of hypothermia in CD-1 mouse assessed as change in body temperature at 15 mg/kg, ip measured after 90 mins by thermometric method (reference value: -0.3 to 0.3 deg C). The data set is classed as functional, organism-based.
Data set [13] has as its system Mus musculus. Description: Induction of hypothermia in CD-1 mouse assessed as change in body temperature at 20 mg/kg, ip measured after 90 mins by thermometric method. The format is functional, organism-based.
Data set [14] concerns Mus musculus. Description: Induction of hypothermia in CD-1 mouse assessed as change in body temperature at 5 mg/kg, ip measured after 120 mins by thermometric method. The data set is classed as functional, organism-based.
Data set [15] deals with Mus musculus. Description: Induction of hypothermia in CD-1 mouse assessed as change in body temperature at 10 mg/kg, ip measured after 120 mins by thermometric method. The data set is classed as functional, organism-based.
Data set [16] deals with Mus musculus. Description: Induction of hypothermia in CD-1 mouse assessed as change in body temperature at 15 mg/kg, ip measured after 120 mins by thermometric method (reference value: -0.1 to 0.3 deg C). The format is functional, organism-based.
The test system of data set [17] is Mus musculus. Description: Induction of hypothermia in CD-1 mouse assessed as change in body temperature at 20 mg/kg, ip measured after 120 mins by thermometric method. The format is functional, organism-based.
Data set [18] concerns Mus musculus. Description: Induction of hypothermia in CD-1 mouse assessed as change in body temperature at 10 mg/kg, ip pretreated for 30 mins with 5-HT1AR antagonist WAY100635 followed by compound treatment and measured after 30 mins by thermometric method. The format is functional, organism-based.
Data set [19] concerns Mus musculus. Description: Induction of hypothermia in CD-1 mouse assessed as change in body temperature at 10 mg/kg, ip pretreated for 60 mins with 5-HT1AR antagonist WAY100635 followed by compound treatment and measured after 30 mins by thermometric method. The format is functional, organism-based.
Data set [20] can be described thus: Half life in human liver microsomes at 1 uM measured for 5 to 30 mins in presence of NADPH by LC-MS/MS analysis. The data set is classed as ADME, Microsome. Background: Liver microsomes are a subcellular fraction often used to study metabolism.
In data set [21] the target is T1, hERG (KCNH2) (Homo sapiens, UniProt Q12809). Description: Inhibition of human ERG at 10 uM by automated patch-clamp assay relative to control. Background: In patch-clamp work, channel activity is measured electrically.
T1 sequence (Q12809 whole entry): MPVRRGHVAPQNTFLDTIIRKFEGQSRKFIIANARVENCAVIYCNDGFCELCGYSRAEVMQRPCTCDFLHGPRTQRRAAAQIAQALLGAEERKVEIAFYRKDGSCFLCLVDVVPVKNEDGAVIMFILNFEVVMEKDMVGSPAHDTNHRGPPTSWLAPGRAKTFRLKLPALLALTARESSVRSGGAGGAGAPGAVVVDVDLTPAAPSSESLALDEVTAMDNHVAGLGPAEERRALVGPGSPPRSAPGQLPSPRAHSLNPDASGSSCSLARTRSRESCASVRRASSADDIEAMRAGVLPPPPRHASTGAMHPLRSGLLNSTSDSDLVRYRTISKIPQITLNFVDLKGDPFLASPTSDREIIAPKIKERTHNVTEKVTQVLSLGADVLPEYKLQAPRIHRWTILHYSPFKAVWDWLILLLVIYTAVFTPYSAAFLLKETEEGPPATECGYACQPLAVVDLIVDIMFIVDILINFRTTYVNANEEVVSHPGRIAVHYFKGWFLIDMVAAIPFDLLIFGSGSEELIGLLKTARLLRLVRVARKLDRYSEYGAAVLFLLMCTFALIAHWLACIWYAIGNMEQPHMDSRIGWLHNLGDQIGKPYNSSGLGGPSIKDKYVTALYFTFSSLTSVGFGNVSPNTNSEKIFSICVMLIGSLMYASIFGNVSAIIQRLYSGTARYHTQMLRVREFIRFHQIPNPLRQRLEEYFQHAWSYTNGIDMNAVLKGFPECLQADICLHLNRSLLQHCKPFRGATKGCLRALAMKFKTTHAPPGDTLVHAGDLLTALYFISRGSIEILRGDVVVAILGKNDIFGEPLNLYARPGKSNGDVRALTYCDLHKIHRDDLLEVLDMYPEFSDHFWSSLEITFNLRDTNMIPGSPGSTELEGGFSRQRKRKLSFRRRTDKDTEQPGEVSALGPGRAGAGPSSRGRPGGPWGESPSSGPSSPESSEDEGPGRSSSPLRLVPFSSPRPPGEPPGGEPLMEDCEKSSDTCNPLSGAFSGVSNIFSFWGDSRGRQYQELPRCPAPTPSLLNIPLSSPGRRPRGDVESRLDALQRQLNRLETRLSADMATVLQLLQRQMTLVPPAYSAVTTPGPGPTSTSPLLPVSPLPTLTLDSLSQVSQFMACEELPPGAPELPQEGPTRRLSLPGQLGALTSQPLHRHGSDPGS
For data set [22], the target named is T1, hERG (KCNH2). Description: Inhibition of human ERG at 1 uM by automated patch-clamp assay relative to control.
Data set [23] concerns the target T1, hERG (KCNH2). Description: Inhibition of human ERG at 0.1 uM by automated patch-clamp assay relative to control.
The test system of data set [24] is Mus musculus. Description: Antidepressant-like activity in CD-1 mouse at 10 mg/kg, ip treated for 30 mins and measured for 4 mins by forced swim test.
The subject of data set [25] is Alpha-1 adrenergic receptor (Rattus norvegicus). Description: Displacement of [3H]-prazosin from rat cortex alpha1 adrenergic receptor incubated for 30 mins by microbeta scintillation counting method. (Loss of bound radioactivity is the signal in a displacement assay; it reports binding, not function.)
In data set [26] the target is 5-hydroxytryptamine receptor 2B (Homo sapiens, UniProt P41595). Description: Binding affinity to 5-HT2BR (unknown origin).
Sequence of 5-hydroxytryptamine receptor 2B (P41595 whole entry): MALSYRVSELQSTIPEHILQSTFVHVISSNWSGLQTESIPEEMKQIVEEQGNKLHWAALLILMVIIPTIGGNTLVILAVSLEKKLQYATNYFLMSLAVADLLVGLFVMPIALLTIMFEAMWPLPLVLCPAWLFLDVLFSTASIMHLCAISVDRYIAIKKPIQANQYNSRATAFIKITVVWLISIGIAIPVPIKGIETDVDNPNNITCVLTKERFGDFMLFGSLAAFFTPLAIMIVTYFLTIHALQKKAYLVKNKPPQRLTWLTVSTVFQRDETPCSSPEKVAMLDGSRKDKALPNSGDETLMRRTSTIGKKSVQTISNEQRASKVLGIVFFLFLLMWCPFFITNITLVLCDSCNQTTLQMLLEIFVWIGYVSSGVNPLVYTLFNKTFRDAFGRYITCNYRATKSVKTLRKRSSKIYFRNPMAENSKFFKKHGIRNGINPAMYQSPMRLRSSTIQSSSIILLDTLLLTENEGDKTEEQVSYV
Another data set addresses D(2) dopamine receptor (Homo sapiens, UniProt P14416). Description: Displacement of [3H]-raclopride from human D2L receptor expressed in HEK293 cells incubated for 1 hr by liquid scintillation counting method. The format is cell-based.
The target of data set [27] is 5-hydroxytryptamine receptor 7 (Homo sapiens, UniProt P34969). Description: Displacement of [3H]-5-CT from human 5HT7 receptor expressed in HEK293 cells incubated for 1 hr by liquid scintillation counting method. The format is cell-based.
Sequence of 5-hydroxytryptamine receptor 7 (P34969 whole entry): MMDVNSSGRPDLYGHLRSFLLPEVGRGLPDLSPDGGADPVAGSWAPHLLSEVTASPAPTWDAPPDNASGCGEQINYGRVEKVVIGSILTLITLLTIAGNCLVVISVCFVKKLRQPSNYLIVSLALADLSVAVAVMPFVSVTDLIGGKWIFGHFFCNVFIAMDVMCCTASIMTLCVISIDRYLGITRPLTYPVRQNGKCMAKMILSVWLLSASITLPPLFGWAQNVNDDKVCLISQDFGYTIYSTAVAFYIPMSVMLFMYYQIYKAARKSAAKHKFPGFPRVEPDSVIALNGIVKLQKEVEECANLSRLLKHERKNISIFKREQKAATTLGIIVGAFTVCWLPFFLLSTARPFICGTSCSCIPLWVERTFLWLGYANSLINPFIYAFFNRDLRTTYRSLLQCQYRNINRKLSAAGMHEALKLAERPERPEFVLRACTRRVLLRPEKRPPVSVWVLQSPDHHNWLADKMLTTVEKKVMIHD
The target in data set [28] is T2, 5-hydroxytryptamine receptor 1A (Homo sapiens, UniProt P08908).
T2 sequence (P08908 whole entry): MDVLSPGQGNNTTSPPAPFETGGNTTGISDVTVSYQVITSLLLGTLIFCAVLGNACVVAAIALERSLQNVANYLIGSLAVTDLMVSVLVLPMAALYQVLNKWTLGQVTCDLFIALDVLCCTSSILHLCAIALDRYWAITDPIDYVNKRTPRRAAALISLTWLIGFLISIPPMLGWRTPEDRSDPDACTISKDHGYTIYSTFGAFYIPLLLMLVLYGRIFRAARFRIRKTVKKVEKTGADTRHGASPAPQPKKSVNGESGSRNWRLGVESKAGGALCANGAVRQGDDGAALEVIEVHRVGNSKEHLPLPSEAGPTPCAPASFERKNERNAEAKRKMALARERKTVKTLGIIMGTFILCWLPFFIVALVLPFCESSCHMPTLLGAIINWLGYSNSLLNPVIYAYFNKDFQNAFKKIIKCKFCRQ

The source made the active and inactive calls.

Sequence of D(2) dopamine receptor (P14416 whole entry): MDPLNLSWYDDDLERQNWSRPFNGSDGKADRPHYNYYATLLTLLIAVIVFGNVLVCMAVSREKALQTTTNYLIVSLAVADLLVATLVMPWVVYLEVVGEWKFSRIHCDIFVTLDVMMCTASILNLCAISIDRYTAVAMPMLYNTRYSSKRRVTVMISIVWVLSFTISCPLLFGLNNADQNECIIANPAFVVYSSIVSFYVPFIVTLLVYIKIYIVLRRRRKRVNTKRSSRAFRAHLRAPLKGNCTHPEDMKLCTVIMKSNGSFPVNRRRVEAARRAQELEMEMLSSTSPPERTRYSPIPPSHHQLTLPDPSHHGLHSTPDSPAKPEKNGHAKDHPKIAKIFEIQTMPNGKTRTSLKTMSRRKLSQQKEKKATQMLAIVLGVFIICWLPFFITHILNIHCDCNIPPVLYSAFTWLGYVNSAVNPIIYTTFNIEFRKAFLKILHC

Take `O=C1CC(c2c[nH]c3ccccc23)C(=O)N1CCCCN1CCC(c2c[nH]c3ccc(F)cc23)CC1` (centres undefined): the deltaT was 0.3 °C in the data set with Mus musculus [1]; -1.4 °C with Mus musculus [3]; -2 °C in the data set with Mus musculus [4]; -2.2 °C in the data set with Mus musculus [5]; 0.4 °C in the data set on Mus musculus [6]; -0.5 °C in the data set with Mus musculus [7]. The deltaT is -0.8 °C with Mus musculus [8]; -1 °C with Mus musculus [9]; 0.5 °C in the data set on Mus musculus [10]; 0.1 °C in the data set on Mus musculus [11]; 0 °C with Mus musculus [12]; -0.4 °C in the data set with Mus musculus [13]. For the same compound, the deltaT in the data set with Mus musculus [14] is 0.2 °C; in the data set on Mus musculus [15], 0.2 °C; in the data set on Mus musculus [16], 0.3 °C; with Mus musculus [17] it was -0.3 °C; in the data set with Mus musculus [18], -0.1 °C; in the data set on Mus musculus [19], 0.7 °C. The outcome (in the data set with Mus musculus [2]; in the data set on Mus musculus [24]; in data set [25]) was Active. In addition, the half-life at 1 µM in data set [20] was 11.5 min. This compound also registered an inhibition at 10 µM on hERG (KCNH2) [21] of 96.4%. In addition, on hERG (KCNH2) [22], testing at 1 µM gave an inhibition of 84.7%. Further, the inhibition at 0.1 µM against hERG (KCNH2) [23] was 45.1%.

For the compound `O=c1ccc2ccc(OCCCCN3CCN(c4cccc5sccc45)CC3)cc2[nH]1` [BREXPIPRAZOLE], the Ki in data set [26] is 0.398 nM; at D(2) dopamine receptor, 0.3 nM; in [27] it was 3.7 nM; in data set [28], 0.12 nM.
